# Test results as given in BindingDB's records for doi:10.1016/0960-894X(95)00417-R (1995).
# Experiments:
# [1] = Tested in vitro for receptor binding affinity to 5-hydroxytryptamine 1D receptor in bovine caudate using [3H]5-HT radioligand
# [2] = Compound was tested for the inhibition of forskolin-stimulated adenylate cyclase at 5-hydroxytryptamine 1A receptor in guinea pig
SMILES,IC50 [1] [µM],EC50 [2] [µM]
CN1CCC[C@@H]1Cc1c[nH]c2ccc(-n3cnc4cc(C#N)ccc43)cc12 [CP-161242],0.0013,0.026
"CN(C)CCc1c[nH]c2ccc(-n3cnc4cccnc43)cc12 [[2-(5-Imidazo[4,5-b]pyridin-3-yl-1H-indol-3-yl)-ethyl]-dimethyl-amine]",0.011,0.46
